pKd: −log10 of the molar value.

For test [1], the target named is T1, Galectin-3 (Homo sapiens, UniProt P17931). Nature of the test: Binding affinity to wild type Galectin-3 (unknown origin) assessed as dissociation constant by fluorescence polarization assay. Background: In fluorescence polarisation assays a small probe gives low polarisation when free and higher when bound to something large.
In test [2] the target is T1, Galectin-3.
Description: Binding affinity to Galectin-3 (unknown origin) assessed as change in enthalpy by isothermal titration calorimetry analysis
In test [3] the target is T1, Galectin-3. This is another data set of the same source.
Description: Binding affinity to Galectin-3 (unknown origin) assessed as change in entropy by isothermal titration calorimetry analysis
In test [4] the target is T1, Galectin-3. This is another data set of the same source.
Description: Binding affinity to Galectin-3 (unknown origin) assessed as gibbs free energy change by isothermal titration calorimetry analysis
Test [5] has as its target T1, Galectin-3. As to the kind of experiment: Binding affinity to Galectin-3 (unknown origin) assessed as dissociation constant by fluorescence polarization assay.

T1 sequence (P17931 whole entry): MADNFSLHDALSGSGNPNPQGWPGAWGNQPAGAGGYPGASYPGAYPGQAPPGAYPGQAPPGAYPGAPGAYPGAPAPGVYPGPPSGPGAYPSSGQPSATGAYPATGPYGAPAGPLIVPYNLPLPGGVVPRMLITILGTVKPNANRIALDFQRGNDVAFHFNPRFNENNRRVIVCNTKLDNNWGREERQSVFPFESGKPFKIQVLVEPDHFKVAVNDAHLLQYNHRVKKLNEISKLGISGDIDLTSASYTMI

Take `Cc1ccc(S[C@@H]2O[C@H](CO)[C@H](O)[C@H](n3cc(S(=O)(=O)c4ccccc4)nn3)[C@H]2O)cc1`: the negative logarithm of the Kd (pKd) (as a rule, the negative decadic logarithm of the Kd, by convention in mol/L) at Galectin-3 [1] was 4.10.
Turning to `[O-][S+](c1ccccc1)c1cn([C@H]2[C@@H](O)[C@@H](CO)O[C@@H](S[C@@H]3O[C@H](CO)[C@@H](O)[C@H](O)[C@H]3O)[C@@H]2O)nn1` (stereo not given in full), the deltaH at Galectin-3 [2] was -6.17 kcal/mol. Besides, the -TdeltaS at Galectin-3 [3] was determined as 0.62 kcal/mol. Besides, the deltaG on Galectin-3 [4] was -5.55 kcal/mol. In addition, the pKd at Galectin-3 [5] was 4.26.

The record behind these values is ChEMBL document CHEMBL5370652, “Ligand Sulfur Oxidation State Progressively Alters Galectin-3-Ligand Complex Conformations To Induce Affinity-Influencing Hydrogen Bonds” (J Med Chem, 2023).
